Here are results for 1 compound from patent publication US20100173873A1, “TREATMENT OF METASTASIZED TUMORS” (Novartis Vaccines and Diagnostics, Inc., priority 2005, published 2010).

“Also recorded” adds a separate entry of the source. A value given as a limit tells only on which side of the number the result lay.

The subject of one assay is RS4;11 tumors. Kind of assay: Subcutaneous RS4;11 xenograft model. The class given is in vivo, SCID-NOD mice. The following applies: RS4;11 s.c., 10-150 mg/kg/d p.o. The method, then:
. Animals received sterile rodent chow and water ad libitum and were housed in sterile filter-top cages with 12 hour light/dark cycles. All experiments were under the guidelines of the Association for Assessment and Accreditation of Laboratory Animal Care International.
Cells (5×10^6 cells/mouse) were reconstituted with 50% Matrigel (Becton Dickinson) and implanted s.c. into the right flank of SCID-NOD mice. Treatments were initiated when tumors were 200-1000 mm^3, as outlined in specific study designs. Mice were randomly assigned into cohorts (typically 10 mice/group for efficacy studies and 3-5 mice/group for pharmacodynamic (PD) studies). Compound 1 was administered as a solution via oral gavage. […] . […] Response rates were defined as complete responses CR (no palpable tumor) or partial responses PR (50-99% shrinkage) compared to tumor volume at treatment initiation.

The test system of assay [1] is VEGF production in MV4;11 cells. Kind of assay: VEGF ELISA on MV4;11 culture supernatants. The class given is cell-based. The following applies: Homo sapiens; MV4;11, 48 hours; read-out: EC50 inhibition of VEGF production. A general note: An ELISA detects its analyte on a solid surface through an enzyme-linked reagent.
The next assay deals with pERK in MV4;11 tumors. Kind of assay: Target modulation in vivo, pERK in MV4;11 tumors. Also on record: species or system SCID-NOD mice. Conditions: 10 mg/kg/d p.o. The method, then:
[…]. […] For in vivo target modulation analyses, resected tumors were flash frozen, pulverized and stored at −70° C. prior to lysis with 150 mM NaCl, 1.5 mM MgCl2, 50 mM Hepes, pH 7.5, 10% glycerol, 1.0% Triton X-100, 1 mM EGTA, 50 mM NaF, 1 mM Na3VO4, 2 mM Pefabloc (Roche), and complete protease inhibitor cocktail (Roche). Protein content of the lysates was determined using the BCA assay (Bio-Rad, Hercules, Calif.). Western blot analysis for pERK was performed with a mouse antibody to pERK (1:1000, Cell Signaling, Beverly, Mass.) and incubated at 4° C. overnight. Total ERK level was evaluated by re-probing with antibody against total ERK (Cell Signaling). The membranes were then incubated for 1 hour at RT with 1:5000 horseradish peroxidase-conjugated anti-rabbit IgG (Jackson Immunoresearch, West Grove, Pa.). […] FLT3 or STAT5 phosphorylation was measured by probing with an anti-phosphotyrosine antibody (anti-pFLT3 antibody from Cell Signaling, and anti-pSTAT5 antibody from Upstate). Proteins were detected using enhanced chemiluminescence (ECL; Amersham Biosciences, Buckinghamshire, England) and visualized after exposure to Kodak film. Scanning densitometry was performed to quantify band intensities. […]
[…]. […] Tumors that were harvested after selected time points, were homogenized and analyzed for pFLT3 and pSTAT5 levels by IP/Western blot. […]

Assay [2] deals with other kinases in the PI3K/Akt and MAPK(K) pathways. As to the kind of experiment: Selectivity test against other kinases. The class given is biochemical. Conditions: negligible activity.
Another assay concerns PC-3M-luc tumor cells. As to the kind of experiment: PC-3M-luc bone metastatic prostate model. Format: in vivo, nude mice. The method, then:
Cell lines. Metastatic human prostate cell line PC-3M expressing null p53, del PTEN, VEGFR, FGFR and stably transfected with a construct of luciferase were obtained under a licensing agreement with Xenogen.
In vivo efficacy studies. […]. Animals received sterile rodent chow and water ad libitum and were housed in sterile filter-top cages with 12 hour light/dark cycles. All experiments were conducted under the guidelines of the Association for Assessment and Accreditation of Laboratory Animal Care International. PC-3M luc bone metastatic model. Human prostate cancer cell line PC-3M-luc cells (1.5×10^6 cells) stably transfected with a construct of luciferase were injected via intracardiac injections. Bioluminescent imaging (Xenogen's IVIS® imaging system) was used to non-invasively monitor the in vivo growth and metastasis of PC-3M-luc tumors after cell inoculation. Nearly all PC-3M-luc tumor cell-injected animals developed prostate lesions, which were mainly localized in the femur, and mandibles. […]. Mice were monitored daily and were euthanized when moribund.
Immunohistochemistry. Bone (femurs, mandible) samples were decalcified (Protocol™, Fisher Diagnostics, Middletown, Va.). Paraffin blocks were sectioned to […] thickness and placed on positively charged glass slides. Tissues were stained with hematoxylin and eosin for general tissue morphology and identification of PC-3M cells in bone.
Nude mice were inoculated with PC-3M-Luc cells intracardiacally with 1.5×10^6 cells. […]. The PC-3M-luc cell lines were purchased from Xenogen and the mice were imaged using Xenogen's IVIS® imaging system.

Another assay has as its system pERK in MV4;11 cells. As to the kind of experiment: pERK in MV4;11 cells (flow cytometry, Western blot). Conditions: Homo sapiens, MV4-11, 3 h, read-out: Inhibition of pERK. Background: In flow cytometry, cells or beads pass a laser one at a time.
The next assay concerns pSTAT5 in MV4;11 cells. As to the kind of experiment: pSTAT5 in MV4;11 cells (flow cytometry, Western blot). The following applies: Homo sapiens, MV4-11, 3 h, read-out: Inhibition of pSTAT5.
The target of the next assay is ERK-½. Kind of assay: In vitro kinase assay, ERK. Format: biochemical. Conditions: RTK table.

Take `CN1CCN(c2ccc3nc(-c4c(N)c5c(F)cccc5[nH]c4=O)[nH]c3c2)CC1` [Compound 1, 4-Amino-5-fluoro-3-[6-(4-methylpiperazin-1-yl)-1H-benzimidazol-2-yl]quinolin-2(1H)-one]: the Tumor regressions entry in the assay with RS4;11 tumors is reported as “no regressions were observed”. Besides, in assay [1], the EC50 fell in the range of 0.001 to 0.01 µM. In the assay with pERK in MV4;11 tumors, the “pERK levels in tumors” value is reported as “Decreases in pERK levels”. For the same compound, the IC50 (in assay [2]; against ERK-½) was > 10 µM throughout. The “Photon counts / metastatic growth of PC-3M-luc cells” value in the assay with PC-3M-luc tumor cells (50 mg/kg p.o. daily, vs. vehicle) is listed as “trend to inhibit metastatic growth; also recorded: trend of decreased photon count; also recorded: trend to inhibit PC-3M-luc photon counts”. Further, the “Efficacy compared with taxol (15 mg/kg)” value with PC-3M-luc tumor cells (50 mg/kg/d p.o.) is recorded as “more effective than taxol treatment”. In addition, the inhibition at 0.1 µM in the assay with pERK in MV4;11 cells and in the assay with pSTAT5 in MV4;11 cells was > 50% each time.

Usually EC50 stands for the midpoint of the concentration-response curve. Broadly, the IC50 is the concentration at which inhibition is half-maximal. A higher IC50 goes with weaker potency. As usually defined, the inhibition is the drop in the measured response relative to a control, in per cent.
